Assay [1] in a line: inhibitors of Her2 kinase expression, dose response, cell-based, AlphaScreen, CellTiter-Glo viability (AID 742). Particulars: human cells, Her2 expression AlphaScreen; CTG viability; at 9.62 µM (top of the series). (Alpha assays give light when donor and acceptor beads are brought close together.)
Assay [2] concerns human cells, Her2 expression AlphaScreen; CTG viability. Described as above. The note with it: viability, CellTiter-Glo. A general note: Cellular ATP, detected with luciferase, serves as a proxy for viable cell number.

Active and inactive are the calls of the source. The rule behind the calls is not given here.

The term EC50 denotes the midpoint of the concentration-response curve. Lower therefore signals an effect from little substance. Consider `COc1cc(-c2nc(-c3ccc(NC(=O)c4ccc5c(c4)OCO5)cc3)no2)cc(OC)c1OC`, for which the Her2 inhibition in assay [1] was -12.5% (inactive). The same compound registered an EC50 in assay [2] of over 9.62 µM.

For the compound `CCOC(=O)c1c(C)[nH]c(C(=O)OC/C(O)=C(\C#N)c2nc3ccccc3[nH]2)c1C`, the Her2 inhibition in assay [1] is 16.6% (inactive). Further, in assay [2], the half-maximal effective concentration (EC50) is over 9.62 µM.

In the case of `CCN(CCNC(=O)C1CCN(Cc2nc(-c3cccc(Cl)c3)oc2C)CC1)c1ccccc1`, the Her2 inhibition in assay [1] is -54.8% (inactive). In assay [2], the EC50 is over 9.62 µM.

`CN1CCN(CCCN2c3ccccc3Sc3ccc(Cl)cc32)CC1`: the Her2 inhibition in assay [1] was -5.38% (inactive). Also, the EC50 in assay [2] was over 9.62 µM.

Take `CC1(C)CC(=O)C2=C(C1)OC(=O)C2(NC(=O)c1cccs1)C(F)(F)F` (centres undefined): the Her2 inhibition in assay [1] was -18.5% (inactive). In addition, in assay [2], the EC50 is over 9.62 µM.

Regarding `CCOc1ccc(-c2nnn(CC(=O)c3cc(OC)ccc3OC)n2)cc1`, in assay [1], the Her2 inhibition was -22.6% (inactive). In assay [2], this compound showed an EC50 of over 9.62 µM.

For `CCn1c(C)cc(=S)c2ccccc21`, the Her2 inhibition in assay [1] was -25.6% (inactive). The EC50 in assay [2] was over 9.62 µM.

In the case of `Cc1ccc(NC(=O)CNc2cccc(C)c2C)c(C)c1`, the Her2 inhibition in assay [1] was -12.6% (inactive). Also, the concentration giving a half-maximal response (EC50) in assay [2] was over 9.62 µM.

`CN(C)CCCN1c2ccccc2Sc2ccc(C(F)(F)F)cc21`: the Her2 inhibition in assay [1] is 0.74% (inactive). This compound also gave a concentration for a half-maximal effect (EC50) in assay [2] of over 9.62 µM.

Take `COc1ccc(-c2nc(C(N)=O)c3[nH]c(=O)n(-c4cccc(Cl)c4)c3n2)cc1OC`: the Her2 inhibition in assay [1] was -17.3% (inactive). The concentration giving a half-maximal response (EC50) in assay [2] was over 9.62 µM.

Turning to `CCn1c2ccccc2c2cc(C3C(C#N)=C(N)Oc4n[nH]c(COC)c43)ccc21` (centres undefined), the Her2 inhibition in assay [1] is 29.6% (inactive). The same compound had a concentration for a half-maximal effect (EC50) in assay [2] of over 9.62 µM.

`CCOC(=O)CC1=C(C(=O)OCC)C(c2ccc(OC)cc2OC)C(C#N)=C(N)O1` (centres undefined): in assay [1], the Her2 inhibition was -27.6% (inactive). Further, the EC50 in assay [2] was over 9.62 µM.

For `CCCc1cc(C(=O)Cc2ccc(F)cc2)c(O)cc1O`, the Her2 inhibition in assay [1] was -30.2% (inactive). In assay [2], this compound gave an EC50 of over 9.62 µM.

As to `Cc1ccccc1-n1nc2c(c1NC(=O)c1cc3ccccc3oc1=O)CS(=O)(=O)C2`, in assay [1], the Her2 inhibition is -11.6% (inactive). In assay [2], this compound gave a 50% effective concentration (EC50) of over 9.62 µM.

Consider `CCN(CC)c1ccc2c(Cl)c(Br)c(=O)oc2c1`, for which the Her2 inhibition in assay [1] was 3.42% (inactive). Also, the 50% effective concentration (EC50) in assay [2] was over 9.62 µM.

On to `CCOc1ccc(CNc2ccc3c(c2)ncn3C)cc1`, for which, in assay [1], the Her2 inhibition is 8.61% (inactive). In assay [2], this compound showed an EC50 of over 9.62 µM.

Take `CC1CN(c2oc(COc3ccc(Cl)cc3Cl)nc2C#N)CC(C)O1` (centres undefined): the Her2 inhibition in assay [1] is -17.3% (inactive). This compound yielded an EC50 in assay [2] of over 9.62 µM.

As for `CCCc1[nH]nc2c1C(c1ccc(OC)c(Cn3nc(C)c(Br)c3C)c1)C(C#N)=C(N)O2` (centres undefined), the Her2 inhibition in assay [1] was -0.44% (inactive). The compound also came in with an EC50 in assay [2] of over 9.62 µM.

Consider `Cc1ccc2[nH]cc(C(=O)CN3CCN(c4ccccn4)CC3)c2c1`, for which the Her2 inhibition in assay [1] was -23.7% (inactive). For the same compound, the concentration for a half-maximal effect (EC50) in assay [2] was over 9.62 µM.

For the compound `COCCCN1C(=O)C(O)=C(C(C)=O)C1c1cccc(F)c1` (centres undefined), the Her2 inhibition in assay [1] is -2.16% (inactive). Also, the 50% effective concentration (EC50) in assay [2] was over 9.62 µM.

On to `COc1ccc(-c2cc(N)n(S(=O)(=O)c3c(F)c(F)c(F)c(F)c3F)n2)cc1OC`, for which, in assay [1], the Her2 inhibition was 48.8% (inactive). The compound further returned a concentration giving a half-maximal response (EC50) in assay [2] of over 9.62 µM.

Take `COC(=O)CC1=C(C(=O)OC)C(c2ccc3c(c2Cl)OCO3)C(C#N)=C(N)O1` (centres undefined): the Her2 inhibition in assay [1] is -10.7% (inactive). The compound also showed a half-maximal effective concentration (EC50) in assay [2] of over 9.62 µM.

For the compound `CSc1ccc2c(c1)N(CCC1CCCCN1C)c1ccccc1S2` (centres undefined), in assay [1], the Her2 inhibition is -45.6% (inactive). Further, the half-maximal effective concentration (EC50) in assay [2] is over 9.62 µM.

For the compound `CC(C)c1nnc(NC(=O)CCS(=O)(=O)c2nc(-c3cccs3)cc(C(F)(F)F)n2)s1`, the Her2 inhibition in assay [1] was 16.2% (inactive). For the same compound, the EC50 in assay [2] is over 9.62 µM.

Regarding `CCOC(=O)N1CCN(CCC(=O)c2ccc(Cl)cc2)CC1`, in assay [1], the Her2 inhibition is 9.27% (inactive). In addition, in assay [2], the EC50 is over 9.62 µM.

Turning to `CCC(C)NC(=O)c1cnn2c1NC(c1ccc3c(c1)OCO3)CC2C(F)(F)F` (centres undefined), in assay [1], the Her2 inhibition was -0.33% (inactive). Moreover, in assay [2], the EC50 was over 9.62 µM.

Turning to `S=C1SCN(CCN2CCOCC2)CN1Cc1ccccc1`, in assay [1], the Her2 inhibition is -20.1% (inactive). In assay [2], this compound registered an EC50 of over 9.62 µM.

Regarding `CC(C)OCCCNC(=O)c1c(N)n(Cc2cccs2)c2nc3ccccc3nc12`, in assay [1], the Her2 inhibition is -14.5% (inactive). Further, the EC50 in assay [2] was over 9.62 µM.

As to `C=CCc1cccc2cc(C(=O)NC)c(=O)oc12`, the Her2 inhibition in assay [1] is 3.58% (inactive). Further, in assay [2], the 50% effective concentration (EC50) is over 9.62 µM.

Turning to `Oc1ccc2ccccc2c1C=NCc1cn2ccsc2n1`, in assay [1], the Her2 inhibition was -11.2% (inactive). The same compound returned a concentration giving a half-maximal response (EC50) in assay [2] of over 9.62 µM.

For the compound `CCOC(=O)c1c(-c2cccs2)csc1NC(=O)c1ccco1`, in assay [1], the Her2 inhibition is 17.4% (inactive). The compound further showed an EC50 in assay [2] of over 9.62 µM.

For the compound `COC(=O)c1sccc1NC(=O)c1csc(C)c1`, the Her2 inhibition in assay [1] is 29.8% (inactive). Also, in assay [2], the EC50 was over 9.62 µM.

Values taken from PubChem BioAssay AID742 (SRMLSC, 2007).
